# Experimental data from paper PMC7101356, “Cross-site and cross-platform variability of automated patch clamp assessments of drug effects on human cardiac currents in recombinant cells” (Scientific Reports, 2020).
# Assays:
# peak hNav1.5 = molecular target: T1, peak hNav1.5 (Homo sapiens, UniProt Q14524); test: Automated patch clamp, peak hNav1.5 current block; format: cell-based
# T1 construct: expressed in transfected cells; host or cells: HEK293 or CHO, depending on site
# hCav1.2 = hCav1.2 (Homo sapiens, UniProt Q13936); test: Automated patch clamp, hCav1.2 current block; details: for IC50: log IC50, half-maximal inhibitory concentration
# T1 sequence (Q14524 whole entry): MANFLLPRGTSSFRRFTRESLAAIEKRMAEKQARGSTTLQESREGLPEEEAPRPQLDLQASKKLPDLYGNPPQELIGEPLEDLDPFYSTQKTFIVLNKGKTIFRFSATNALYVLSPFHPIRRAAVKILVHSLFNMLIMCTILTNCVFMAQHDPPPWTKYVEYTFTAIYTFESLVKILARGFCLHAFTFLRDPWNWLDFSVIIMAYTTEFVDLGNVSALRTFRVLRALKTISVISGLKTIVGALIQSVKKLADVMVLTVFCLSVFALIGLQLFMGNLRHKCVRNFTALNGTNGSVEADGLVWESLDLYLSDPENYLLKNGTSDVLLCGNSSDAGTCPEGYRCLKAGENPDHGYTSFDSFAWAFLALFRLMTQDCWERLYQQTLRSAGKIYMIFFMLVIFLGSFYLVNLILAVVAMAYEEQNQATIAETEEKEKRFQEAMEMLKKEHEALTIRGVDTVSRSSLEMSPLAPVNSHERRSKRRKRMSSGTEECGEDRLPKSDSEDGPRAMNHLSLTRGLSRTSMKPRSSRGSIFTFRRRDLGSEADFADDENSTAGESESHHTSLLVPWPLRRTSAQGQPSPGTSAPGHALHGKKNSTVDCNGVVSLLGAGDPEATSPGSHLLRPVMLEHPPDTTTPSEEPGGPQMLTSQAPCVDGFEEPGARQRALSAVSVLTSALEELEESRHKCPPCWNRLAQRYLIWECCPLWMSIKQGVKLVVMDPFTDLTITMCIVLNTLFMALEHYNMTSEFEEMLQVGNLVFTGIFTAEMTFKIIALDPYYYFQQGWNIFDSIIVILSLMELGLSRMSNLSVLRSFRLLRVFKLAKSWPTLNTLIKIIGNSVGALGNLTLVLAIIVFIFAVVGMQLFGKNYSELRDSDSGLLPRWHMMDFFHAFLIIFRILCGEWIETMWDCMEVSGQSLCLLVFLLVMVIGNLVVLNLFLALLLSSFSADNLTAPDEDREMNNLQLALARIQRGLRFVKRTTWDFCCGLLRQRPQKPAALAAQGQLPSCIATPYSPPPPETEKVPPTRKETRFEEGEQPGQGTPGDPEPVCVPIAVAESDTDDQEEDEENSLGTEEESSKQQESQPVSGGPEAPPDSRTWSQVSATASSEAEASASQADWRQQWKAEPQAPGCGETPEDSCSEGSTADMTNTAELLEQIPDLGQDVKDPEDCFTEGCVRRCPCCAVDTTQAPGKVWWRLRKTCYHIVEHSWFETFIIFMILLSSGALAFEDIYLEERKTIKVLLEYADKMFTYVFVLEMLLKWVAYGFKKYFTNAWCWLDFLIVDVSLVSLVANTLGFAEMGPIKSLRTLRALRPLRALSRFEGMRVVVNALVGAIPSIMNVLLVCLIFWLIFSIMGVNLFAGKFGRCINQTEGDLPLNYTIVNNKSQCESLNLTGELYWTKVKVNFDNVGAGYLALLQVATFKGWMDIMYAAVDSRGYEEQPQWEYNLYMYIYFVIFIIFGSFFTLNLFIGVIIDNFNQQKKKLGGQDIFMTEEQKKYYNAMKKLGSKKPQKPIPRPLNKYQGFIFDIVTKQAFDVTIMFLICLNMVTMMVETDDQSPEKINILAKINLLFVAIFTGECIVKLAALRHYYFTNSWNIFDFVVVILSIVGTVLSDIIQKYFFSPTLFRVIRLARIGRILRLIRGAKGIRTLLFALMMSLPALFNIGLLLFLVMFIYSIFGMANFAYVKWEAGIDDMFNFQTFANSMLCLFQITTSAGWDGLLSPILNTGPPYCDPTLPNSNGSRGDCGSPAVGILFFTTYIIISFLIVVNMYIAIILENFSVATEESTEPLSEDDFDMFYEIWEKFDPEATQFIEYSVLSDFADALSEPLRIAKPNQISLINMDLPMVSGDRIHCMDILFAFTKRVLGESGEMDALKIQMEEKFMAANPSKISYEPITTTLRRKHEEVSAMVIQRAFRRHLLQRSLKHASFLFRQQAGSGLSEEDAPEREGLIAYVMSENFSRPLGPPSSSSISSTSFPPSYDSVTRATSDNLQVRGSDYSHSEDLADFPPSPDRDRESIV
compound,measurement,setting,value
"Cc1nccn1CC1CCc2c(c3ccccc3n2C)C1=O (stereo not shown) [ond, ondansetron]",peak hNav1.5 Na+ current inhibition (result in words),"peak hNav1.5; no inhibition = no obvious concentration-dependent current block and/or no curve fitting performed, all sites",no inhibition
same,"log IC50, peak hNav1.5 Na+ current inhibition",peak hNav1.5; site_platform s01_p1,no inh.
same,"Peak hNav1.5 Na+ current inhibition, Mean","peak hNav1.5; site_platform s01_p1, 1.00E-05 mol/L",56.4%
same,"Peak hNav1.5 Na+ current inhibition, Mean","peak hNav1.5; site_platform s01_p1, 3.00E-07 mol/L",31.6%
same,"log IC50, peak hNav1.5 Na+ current inhibition",peak hNav1.5; site_platform s02_p2,no inh.
same,"Peak hNav1.5 Na+ current inhibition, Mean","peak hNav1.5; site_platform s02_p2, 1.00E-05 mol/L",9.4%
same,"Peak hNav1.5 Na+ current inhibition, Mean","peak hNav1.5; site_platform s02_p2, 3.00E-07 mol/L",1.4%
same,"log IC50, peak hNav1.5 Na+ current inhibition",peak hNav1.5; site_platform s04_p3,no inh.
same,"Peak hNav1.5 Na+ current inhibition, Mean","peak hNav1.5; site_platform s04_p3, 1.00E-05 mol/L",19.5%
same,"Peak hNav1.5 Na+ current inhibition, Mean","peak hNav1.5; site_platform s04_p3, 3.00E-07 mol/L",4.4%
same,"log IC50, peak hNav1.5 Na+ current inhibition",peak hNav1.5; site_platform s06_p4,no inh.
same,"Peak hNav1.5 Na+ current inhibition, Mean","peak hNav1.5; site_platform s06_p4, 1.00E-05 mol/L",19.0%
same,"Peak hNav1.5 Na+ current inhibition, Mean","peak hNav1.5; site_platform s06_p4, 3.00E-07 mol/L",0.4%
same,"log IC50, peak hNav1.5 Na+ current inhibition",peak hNav1.5; site_platform s07_p6,no inh.
same,"Peak hNav1.5 Na+ current inhibition, Mean","peak hNav1.5; site_platform s07_p6, 1.00E-05 mol/L",17.1%
same,"Peak hNav1.5 Na+ current inhibition, Mean","peak hNav1.5; site_platform s07_p6, 3.00E-07 mol/L",1.7%
same,"log IC50, peak hNav1.5 inhibition",peak hNav1.5; site_platform s10_p3,no inh.
same,"Peak hNav1.5 Na+ current inhibition, Mean","peak hNav1.5; site_platform s10_p3, 1.00E-05 mol/L",20.6%
same,"Peak hNav1.5 Na+ current inhibition, Mean","peak hNav1.5; site_platform s10_p3, 3.00E-07 mol/L",0.1%
same,"log IC50, peak hNav1.5 inhibition",peak hNav1.5; site_platform s11_p1,no inh.
same,"Peak hNav1.5 Na+ current inhibition, Mean","peak hNav1.5; site_platform s11_p1, 1.00E-05 mol/L",15.2%
same,"Peak hNav1.5 Na+ current inhibition, Mean","peak hNav1.5; site_platform s11_p1, 3.00E-07 mol/L",6.1%
same,"log IC50, peak hNav1.5 inhibition",peak hNav1.5; site_platform s12_p2,no inh.
same,"Peak hNav1.5 Na+ current inhibition, Mean","peak hNav1.5; site_platform s12_p2, 1.00E-05 mol/L",12.2%
same,"Peak hNav1.5 Na+ current inhibition, Mean","peak hNav1.5; site_platform s12_p2, 3.00E-07 mol/L",3.0%
same,"log IC50, peak hNav1.5 inhibition",peak hNav1.5; site_platform s13_p2,no inh.
same,"Peak hNav1.5 Na+ current inhibition, Mean","peak hNav1.5; site_platform s13_p2, 1.00E-05 mol/L",7.0%
same,"Peak hNav1.5 Na+ current inhibition, Mean","peak hNav1.5; site_platform s13_p2, 3.00E-07 mol/L",-3.4%
same,"log IC50, peak hNav1.5 inhibition",peak hNav1.5; site_platform s14_p1,no inh.
same,"Peak hNav1.5 Na+ current inhibition, Mean","peak hNav1.5; site_platform s14_p1, 1.00E-05 mol/L",21.3%
same,"Peak hNav1.5 Na+ current inhibition, Mean","peak hNav1.5; site_platform s14_p1, 3.00E-07 mol/L",3.9%
same,"log IC50, peak hNav1.5 inhibition",peak hNav1.5; site_platform s15_p1,no inh.
same,"Peak hNav1.5 Na+ current inhibition, Mean","peak hNav1.5; site_platform s15_p1, 1.00E-05 mol/L",43.9%
same,"Peak hNav1.5 Na+ current inhibition, Mean","peak hNav1.5; site_platform s15_p1, 3.00E-07 mol/L",11.8%
same,"log IC50, peak hNav1.5 inhibition",peak hNav1.5; site_platform s16_p3,no inh.
same,"Peak hNav1.5 Na+ current inhibition, Mean","peak hNav1.5; site_platform s16_p3, 1.00E-05 mol/L",14.4%
same,"Peak hNav1.5 Na+ current inhibition, Mean","peak hNav1.5; site_platform s16_p3, 3.00E-07 mol/L",2.8%
same,"log IC50, peak hNav1.5 inhibition",peak hNav1.5; site_platform s17_p1,no inh.
same,"Peak hNav1.5 Na+ current inhibition, Mean","peak hNav1.5; site_platform s17_p1, 1.00E-05 mol/L",33.4%
same,"Peak hNav1.5 Na+ current inhibition, Mean","peak hNav1.5; site_platform s17_p1, 3.00E-07 mol/L",-17.0%
same,"log IC50, peak hNav1.5 inhibition",peak hNav1.5; site_platform s18_p1,no inh.
same,"Peak hNav1.5 Na+ current inhibition, Mean","peak hNav1.5; site_platform s18_p1, 1.00E-05 mol/L",29.7%
same,"Peak hNav1.5 Na+ current inhibition, Mean","peak hNav1.5; site_platform s18_p1, 3.00E-07 mol/L",27.5%
same,"log IC50, peak hNav1.5 inhibition",peak hNav1.5; site_platform s19_p3,no inh.
same,"Peak hNav1.5 Na+ current inhibition, Mean","peak hNav1.5; site_platform s19_p3, 1.00E-05 mol/L",24.0%
same,"Peak hNav1.5 Na+ current inhibition, Mean","peak hNav1.5; site_platform s19_p3, 3.00E-07 mol/L",3.5%
same,IC50,hCav1.2; site s04_p3,155 µM
same,IC50,hCav1.2; site s14_p1,28.8 µM
same,IC50,hCav1.2; site s16_p3,6.61 µM
same,"log IC50, half-maximal inhibitory concentration",hCav1.2; site s01_p1,no inh.
same,"Peak hCav1.2 Ca2+ current inhibition, Mean","hCav1.2; site s01_p1, 3.00E-07 mol/L",3.2%
same,"log IC50, half-maximal inhibitory concentration","hCav1.2; site s02_p2, corrected for rundown",no inh.
same,"Peak hCav1.2 Ca2+ current inhibition, Mean","hCav1.2; site s02_p2, corrected for rundown, 3.00E-07 mol/L",-6.3%
same,"nH, Hill slope",hCav1.2; site s04_p3,0.60
same,"Peak hCav1.2 Ca2+ current inhibition, Mean","hCav1.2; site s04_p3, 1.00E-05 mol/L",16.1%
same,"Peak hCav1.2 Ca2+ current inhibition, Mean","hCav1.2; site s04_p3, 3.00E-07 mol/L",2.6%
same,"log IC50, half-maximal inhibitory concentration",hCav1.2; site s06_p4,no inh.
same,"Peak hCav1.2 Ca2+ current inhibition, Mean","hCav1.2; site s06_p4, 3.00E-07 mol/L",18.9%
same,"log IC50, half-maximal inhibitory concentration",hCav1.2; site s11_p1,no inh.
same,"Peak hCav1.2 Ca2+ current inhibition, Mean","hCav1.2; site s11_p1, 3.00E-07 mol/L",19.7%
same,"nH, Hill slope",hCav1.2; site s14_p1,2.00
same,"Peak hCav1.2 Ca2+ current inhibition, Mean","hCav1.2; site s14_p1, 3.00E-07 mol/L",4.0%
same,"nH, Hill slope",hCav1.2; site s16_p3,0.42
same,"Peak hCav1.2 Ca2+ current inhibition, Mean","hCav1.2; site s16_p3, 3.00E-07 mol/L",20.6%
